Measurements from patent US11304974B2, “Nanosystems comprising silver and antibiotics and their use for the treatment of bacterial infections” (priority 2017, dated 2022).
Read-outs that look alike come from different tables or passages of the source.

How the values were obtained:
[1] = system: Pseudomonas DacB Mutant (hiperproducing AMPC); assay: Silver-antibiotics interaction study, MicroScan (Example 4); format: cell-based, Pseudomonas aeruginosa; details: subinhibitory colloidal silver (½ or 1/10 MIC)
Experimental: (§1) The effect of subinhibitory concentrations of colloidal silver (namely, ½ and 1/10 dilution of the MIC obtained in Example 3) in the presence of different types of antibiotics was tested.
(§2) For this, an automated equipment MicroScan AutoScan 4 (Siemens) was used, using Gram negative (Becman Coulter NM37) and Gram positive (Becman Coulter PM28) cards.
(§3) Each of these broths served as inoculum for the cards with antibiotics (for each strain, thus 3 cards were prepared). • Incubating the plates with antibiotics (in presence and absence of silver) at 37° C. for 24 h. • Reading the cards by use of LabPro software, and interpretation of the obtained values of MIC (determine if the silver reduces the initial MCI of each antibiotic).

E. coli BLEE + = assay: as above; format: cell-based, Escherichia coli; details: subinhibitory colloidal silver (½ or 1/10 MIC)
Experimental: as §1, §2, §3

Klebsiella BLEE + = assay: as above; format: cell-based, Klebsiella pneumoniae; details: subinhibitory colloidal silver (½ or 1/10 MIC)
Experimental: as §1, §2, §3

[2] = system: Pseudomonas MexR Mutant (efflux pump over-expression); assay: as above; format: cell-based, Pseudomonas aeruginosa; details: colloidal silver at ½ MIC
Excerpt: as §2

[3] = system: S. aureus Sa-1 (strain 1); assay: Epsilometry E-test, absence and presence of silver (Example 5); format: cell-based; details: Staphylococcus aureus, strain 1 (S. aureus Sa-1)
Experimental: (§4) In order to evaluate the synergy of collargol-antibiotics an epsilometry E-test was carried out. Said test is based on the agar diffusion method and relates to using a strip with a predefined steady gradient of 15 concentrations of the antibiotic being tested. After strain growth, an elliptical inhibition halo, being the MIC the antibiotic concentration corresponding to the cutting point.
(§5) It was performed for the antibiotics vancomycin, linezolid and tedizolid, in absence and presence of silver (½ and 1/10 MIC).

[4] = system: S. aureus Sa-10 (strain 9); assay: as above; format: cell-based; details: Staphylococcus aureus, strain 9 (S. aureus Sa-10)
Experimental: as §4, §5

[5] = system: S. aureus Sa-11 (strain 10); assay: as above; format: cell-based; details: Staphylococcus aureus, strain 10 (S. aureus Sa-11)
Experimental: as §4, §5

[6] = system: S. aureus Sa-12 (strain 11); assay: as above; format: cell-based; details: Staphylococcus aureus, strain 11 (S. aureus Sa-12)
Experimental: as §4, §5

[7] = system: S. aureus Sa-3 (strain 3); assay: as above; format: cell-based; details: Staphylococcus aureus, strain 3 (S. aureus Sa-3)
Experimental: as §4, §5

[8] = system: S. aureus Sa-9 (strain 8); assay: as above; format: cell-based; details: Staphylococcus aureus, strain 8 (S. aureus Sa-9)
Experimental: as §4, §5

[9] = system: S. epidermidis Se-1 (strain 14); assay: as above; format: cell-based; details: Staphylococcus epidermidis, strain 14 (S. epidermidis Se-1)
Experimental: as §4, §5

[10] = system: S. aureus Sa-13 (strain 12); assay: as above; format: cell-based; details: Staphylococcus aureus, strain 12 (S. aureus Sa-13)
Experimental: as §4, §5

[11] = system: S.aureus ATCC 700698 Sa-SARM (strain 15); assay: as above; format: cell-based; details: Staphylococcus aureus, ATCC700698, strain 15 (S.aureus ATCC 700698, Sa-SARM)
Experimental: as §4, §5

[12] = MH agar with 1/10 MIC of colargol, read-out: MIC (E-test) MH-1/10 MIC
[13] = MH agar with ½ MIC of colargol, read-out: MIC (E-test) MH-½ MIC
[14] = MH agar without silver, read-out: MIC (E-test) MH (without silver)

CCN1CCN(C(=O)N[C@@H](C(=O)N[C@@H]2C(=O)N3[C@@H]2SC(C)(C)[C@@H]3C(=O)O)c2ccccc2)C(=O)C1=O [Piperacillin]
Effect of silver on the strain's sensitivity to the antibiotic [1]: moderate effect improving the MIC values

Gentamicin
Effect of silver on the strain's sensitivity to the antibiotic (E. coli BLEE +): becomes sensitive

C[C@H]1[C@H](NC(=O)/C(=N\OC(C)(C)C(=O)O)c2csc(N)n2)C(=O)N1S(=O)(=O)O [aztreonam, Aztreonam]
Effect of silver on the strain's sensitivity to the antibiotic [1]: change to sensitive | Effect of silver on the strain's sensitivity to the antibiotic (Klebsiella BLEE +): becomes sensitive

CO/N=C(\C(=O)N[C@@H]1C(=O)N2C(C(=O)O)=C(COC(C)=O)CS[C@H]12)c1csc(N)n1 [cefotaxime, Cefotaxime]
Effect of silver on the strain's sensitivity to the antibiotic [2]: improvement in the MIC

C[C@@H]1O[C@@H]1P(=O)(O)O [Fosfomicine, Fosfomycin]
Effect of silver on the strain's sensitivity to the antibiotic [1]: change to sensitive

Cn1nnc(-c2ccc(-c3ccc(N4C[C@H](CO)OC4=O)cc3F)cn2)n1 [Tedizolid]
MIC [3, 12]: 0.25 µg/mL | MIC [3, 13]: 0.19 µg/mL | MIC [3, 14]: 0.19 µg/mL | MIC [4, 12]: 0.38 µg/mL | MIC [4, 13]: 0.38 µg/mL | MIC [4, 14]: 0.5 µg/mL | MIC [5, 13]: 0.25 µg/mL | MIC [5, 14]: 0.38 µg/mL | MIC [6, 13]: 0.25 µg/mL | MIC [6, 14]: 0.25 µg/mL | MIC [7, 12]: 0.19 µg/mL | MIC [7, 13]: 0.125 µg/mL | MIC [7, 14]: 0.19 µg/mL | MIC [8, 12]: 0.19 µg/mL | MIC [8, 13]: 0.19 µg/mL | MIC [8, 14]: 0.25 µg/mL | MIC [9, 12]: 0.38 µg/mL | MIC [9, 13]: 0.25 µg/mL | MIC [9, 14]: 0.38 µg/mL

NC[C@H]1O[C@H](O[C@H]2[C@H](O)[C@@H](O[C@H]3O[C@H](CO)[C@@H](O)[C@H](N)[C@H]3O)[C@H](N)C[C@@H]2N)[C@H](N)C[C@@H]1O [tobramycin, Tobramycin]
Effect of silver on the strain's sensitivity to the antibiotic (E. coli BLEE +): becomes sensitive

Colistin
Effect of silver on the strain's sensitivity to the antibiotic [2]: improvement in the MIC | Effect of silver on the strain's sensitivity to the antibiotic [1]: moderate effect improving the MIC values

CC(=O)NC[C@H]1CN(c2ccc(N3CCOCC3)c(F)c2)C(=O)O1 [Linezolid]
MIC [4, 12]: 1 µg/mL | MIC [4, 13]: 0.75 µg/mL | MIC [4, 14]: 0.75 µg/mL | MIC [5, 12]: 1.5 µg/mL | MIC [5, 13]: 1.5 µg/mL | MIC [5, 14]: 1.5 µg/mL | MIC [6, 12]: 0.5 µg/mL | MIC [6, 13]: 0.5 µg/mL | MIC [6, 14]: 1 µg/mL | MIC [10, 12]: 0.38 µg/mL | MIC [10, 13]: 0.5 µg/mL | MIC [10, 14]: 0.5 µg/mL | MIC [7, 12]: 1.5 µg/mL | MIC [7, 13]: 1 µg/mL | MIC [7, 14]: 1.5 µg/mL | MIC [9, 12]: 0.75 µg/mL | MIC [9, 13]: 0.5 µg/mL | MIC [9, 14]: 0.75 µg/mL | MIC [11, 12]: 0.5 µg/mL | MIC [11, 13]: 0.38 µg/mL | MIC [11, 14]: 0.5 µg/mL

CO/N=C(\C(=O)N[C@@H]1C(=O)N2C(C(=O)[O-])=C(C[N+]3(C)CCCC3)CS[C@H]12)c1csc(N)n1 [Cefepime]
Effect of silver on the strain's sensitivity to the antibiotic [1]: moderate effect improving the MIC values
